Patent US20110275703A1, “SUBSTITUTED SPIROKETAL DERIVATIVES AND USE THEREOF AS THERAPEUTIC DRUG FOR DIABETES” (CHUGAI SEIYAKU KABUSHIKI KAISHA, priority 2007, published 2011)

What was measured:
[1] = target: T1, human SGLT2 (Homo sapiens, UniProt P31639); experiment: Inhibitory activity against methyl-α-D-glucopyranoside uptake, CHO cells stably expressing human SGLT2; assay type: cell-based; conditions: inhibition of SGLT2, Table 2-1; read-out: IC50 value
T1 construct: expressed in transfected cells; host or cells: CHO-K1
T1 sequence (P31639 1-672): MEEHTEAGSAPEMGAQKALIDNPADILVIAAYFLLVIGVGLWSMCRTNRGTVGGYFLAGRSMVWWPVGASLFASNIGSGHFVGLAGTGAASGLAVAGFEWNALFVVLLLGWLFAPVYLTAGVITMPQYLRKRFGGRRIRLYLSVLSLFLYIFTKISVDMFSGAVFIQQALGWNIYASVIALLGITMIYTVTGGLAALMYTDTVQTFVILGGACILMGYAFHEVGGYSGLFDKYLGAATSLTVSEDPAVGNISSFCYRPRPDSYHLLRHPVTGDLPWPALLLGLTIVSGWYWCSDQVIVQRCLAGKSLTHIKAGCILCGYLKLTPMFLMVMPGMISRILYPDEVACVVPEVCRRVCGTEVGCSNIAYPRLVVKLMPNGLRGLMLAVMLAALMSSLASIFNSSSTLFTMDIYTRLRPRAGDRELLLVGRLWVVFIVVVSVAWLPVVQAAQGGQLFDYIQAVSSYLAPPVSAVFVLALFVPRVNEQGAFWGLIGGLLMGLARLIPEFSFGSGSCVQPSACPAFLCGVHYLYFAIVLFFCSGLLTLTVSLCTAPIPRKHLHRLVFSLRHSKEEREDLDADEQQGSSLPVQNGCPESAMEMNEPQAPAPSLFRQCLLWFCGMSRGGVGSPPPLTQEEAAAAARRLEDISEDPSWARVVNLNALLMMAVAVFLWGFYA
Text: Evaluation of inhibitory activity against methyl-α-D-glucopyranoside uptake of human Na^+-glucose cotransporter (SGLT1 and SGLT2)
2) Construction of Human SGLT2 Expression Vector
Human SGLT2 cDNA was amplified by PCR with a cDNA library derived from human kidney (Clontech) as a template, synthetic DNA primers and KOD+ DNA Polymerase. The amplified cDNA was inserted into pcRII-Topo vector by using a Topo TA Cloning Dual Promoter kit. E. coli competent cells (TPO10) were transformed with the plasmid vector, cultured in LB medium containing ampicillin (50 mg/L) to grow ampicillin-resistant clones. The plasmid vector containing human SGLT2 cDNA was purified from the clone in a standard manner. Human SGLT2 cDNA added restriction enzyme recognition sites (Xho I at 5′-end, Hind III at 3′-end) was amplified by PCR with the plasmid vector as a template, synthetic DNA primers containing an additional restriction enzyme recognition site and KOD+ DNA Polymerase. This amplified cDNA was digested with Xho I and Hind III, and ligated into expression vector pcDNA3.1(−) digested with Xho I and Hind III by using a Rapid DNA Ligation kit. E. coli competent cells (DH5α) were transformed with the ligated expression vector and grown in ampicillin-containing LB medium. Human SGLT2 expression vector was purified from the ampicillin-resistant clone in a standard manner.
3) Establishment of Cell Lines Stably Expressing Human SGLT1 or Human SGLT2
The human SGLT1 expression vector or the human SGLT2 expression vector was digested with the restriction enzyme Pvu I and transfected into CHO-Kl cells with FuGENE (Roche Diagonostics). After the transfection, the cells were cultured at 37° C. in the presence of 5% CO2 for about 3 weeks in DMEM medium (Gibco) containing penicillin (50 U/mL, SIGMA), streptomycin (50 mg/L, SIGMA), geneticin (200 mg/L, Nacalai Tesque, Inc., Japan) and 20% fetal bovine serum to obtain geneticin-resistant clones. Among these clones, clones stably expressing human SGLT1 or human SGLT2 were selected by the evaluating the sodium-dependent uptake activity of sugar (methyl-α-D-glucopyranoside).
4) Evaluation of Inhibitory Activity Against methyl-α-D-glucopyranoside uptake
Cell lines stably expressing human SGLT1 or human SGLT2 CHO were seeded in 96-well culture plates at a density of 30000 to 40000 cells/well and cultured for 4 to 6 days. The medium in these plates was removed and replaced by 150 μL/well pretreatment buffer (i.e., a buffer containing 140 mM choline chloride, 2 mM potassium chloride, 1 mM calcium chloride, 1 mM magnesium chloride, 10 mM 2-[4-(2-hydroxyethyl)-1-piperazinyl]ethanesulfonic acid and tris(hydroxymethyl)aminomethane, pH 7.4), and the plates were incubated at 37° C. for 20 minutes. The pretreatment buffer in the plates was removed, replaced by 50 μL/well fresh pretreatment buffer, and the plates were incubated at 37° C. for 20 minutes. Methyl-α-D-(U—^14C)glucopyranoside (6.3 mL, Amersham Pharmacia Biotech, 200 mCi/L) was added to and mixed with 100 mL buffer (i.e., a buffer containing 140 mM sodium chloride, 2 mM potassium chloride, 1 mM calcium chloride, 1 mM magnesium chloride, 1 mM methyl-α-D-glucopyranoside, 10 mM [4-(2-hydroxyethyl)-1-piperazinyl]ethanesulfonic acid and tris(hydroxymethyl)aminomethane, pH 7.4), which was used as uptake buffer. Test compounds were dissolved into uptake buffer and these test compound solutions were used for evaluating inhibitory activity. Uptake buffer without a test compound was used as a control solution. Moreover, for use in measuring baseline uptake in the absence of sodium, sodium-free solution was prepared in the same manner to contain 140 mM choline chloride instead of sodium chloride. The pretreatment buffer was removed from each well of the plates and replaced by 35 μL/well test compound solutions, control solution or sodium-free solution, and the plates were incubated at 37° C. for 45 minutes. […]

[2] = tested on: db/db mice; experiment: Study for glucose lowering effect in db/db mouse; assay type: in vivo; conditions: Mus musculus, po, 0.3 mg/kg administration, 6 hours, read-out: reduction of blood glucose 6 hours after administration
Procedure: Study for Glucose Lowering Effect in dB/dB Mouse
A study for glucose lowering effect was conducted using db/db mice (purchased from Clea Japan, Inc., male, 9 to 11 weeks old), type 2 diabetic model mice. On the day of the study, body weights and blood glucose levels were measured prior to the start of testing. Measurement of the blood glucose levels was performed using a simple blood glucose meter (manufactured by Bayer HealthCare, Dexter-Z II). The mice were allocated to some groups consisting of 5 mice each so that homogeneity of body weights or blood glucose levels among groups would be ensured. Blood collection was carried out by making an incision on the tip of the tail and taking the blood therefrom. On the day of the study, the test compounds were suspended in 0.5% carboxymethylcellulose solution (CMC solution), and the dosing solutions of which concentration was adjusted to either 0.3 mg/10 mL or 3 mg/10 mL were prepared. The dosing solutions were orally administered by gavage for mice in 10 mL/kg. To the control group, only a 0.5% CMC solution was orally administered in 10 mL/kg. Blood was collected prior to or sequentially after administration of test compounds by above method. The blood glucose levels were determined using a hexokinase method (AutoSera S GLU, manufactured by Daiichi Pure Chemicals Co., Ltd.). A percent reduction of blood glucose relative to control group at each time point after administration of test compounds was calculated by the following equation.
Percent reduction of blood glucose (%)={blood glucose level in the control group (mg/dL)-blood glucose level in the test compound group (mg/dL)}/blood glucose level in the control group (mg/dL)×100

`CCOc1ccc(Cc2cc3c(cc2C)CO[C@]32O[C@H](CO)[C@@H](O)[C@H](O)[C@H]2O)cc1` [Example 24, (1S,3′R,4′S,5′S,6′R)-6-[(4-ethoxyphenyl)methyl]-3′,4′,5′,6′-tetrahydro-6′-(hydroxymethyl)-5-methyl-spiro[isobenzofuran-1(3H),2′-[2H]pyran]-3′,4′,5′-triol] was tested, and the IC50 [1] was 1.8 nM and the inhibition in vivo at 0.3 mg/kg [2] was at least 25%.
`CCc1ccc(Cc2cc3c(cc2F)CO[C@]32O[C@H](CO)[C@@H](O)[C@H](O)[C@H]2O)cc1` [Example 16, (1S,3′R,4′S,5′S,6′R)-6-[(4-ethylphenyl)methyl]-5-fluoro-3′,4′,5′,6′-tetrahydro-6′-(hydroxymethyl)-spiro[isobenzofuran-1(3H),2′-[2H]pyran]-3′,4′,5′-triol] was tested, and the IC50 [1] was 1.5 nM and the inhibition in vivo at 0.3 mg/kg [2] was at least 25%.
With `OC[C@H]1O[C@]2(OCc3cc(Cl)c(Cc4ccc(CC(F)F)cc4)cc32)[C@H](O)[C@@H](O)[C@@H]1O` [Example 10, (1S,3′R,4′S,5′S,6′R)-5-chloro-6-[(4-(2,2-difluoroethyl)phenyl)methyl]-3′,4′,5′,6′-tetrahydro-6′-(hydroxymethyl)-spiro[isobenzofuran-1(3H),2′-[2H]pyran]-3′,4′,5′-triol] the IC50 [1] was 1.2 nM and the inhibition in vivo at 0.3 mg/kg [2] was at least 25%.
Work on `Cc1cc2c(cc1Cc1ccc(CCF)cc1)[C@]1(OC2)O[C@H](CO)[C@@H](O)[C@H](O)[C@H]1O` [Example 22, (1S,3′R,4′S,5′S,6′R)-6-[(4-(2-fluoroethyl)phenyl)methyl]-5-methyl-3′,4′,5′,6′-tetrahydro-6′-(hydroxymethyl)-spiro[isobenzofuran-1(3H),2′-[2H]pyran]-3′,4′,5′-triol] yielded an IC50 [1] of 1.1 nM and an inhibition in vivo at 0.3 mg/kg [2] of at least 25%.
For `CC(C)(C)c1ccc(Cc2cc3c(cc2Cl)CO[C@]32O[C@H](CO)[C@@H](O)[C@H](O)[C@H]2O)cc1` [Example 14, (1S,3′R,4′S,5′S,6′R)-6-[(4-tert-butylphenyl)methyl]-5-chloro-3′,4′,5′,6′-tetrahydro-6′-(hydroxymethyl)-spiro[isobenzofuran-1(3H),2′-[2H]pyran]-3′,4′,5′-triol], the IC50 [1] was 3.4 nM and the inhibition in vivo at 0.3 mg/kg [2] was at least 25%.
`Cc1ccc(Cc2cc3c(cc2F)CO[C@]32O[C@H](CO)[C@@H](O)[C@H](O)[C@H]2O)cc1` [Example 18, (1S,3′R,4′S,5′S,6′R)-5-fluoro-3′,4′,5′,6′-tetrahydro-6′-(hydroxymethyl)-6-[(4-methylphenyl)methyl]-spiro[isobenzofuran-1(3H),2′-[2H]pyran]-3′,4′,5′-triol] showed an IC50 [1] of 1.7 nM and an inhibition in vivo at 0.3 mg/kg [2] of at least 25%.
With `COc1ccc(Cc2cc3c(cc2F)CO[C@]32O[C@H](CO)[C@@H](O)[C@H](O)[C@H]2O)cc1` [Example 20, (1S,3′R,4′S,5′S,6′R)-5-fluoro-3′,4′,5′,6′-tetrahydro-6′-(hydroxymethyl)-6-[(4-methoxyphenyl)methyl]-spiro[isobenzofuran-1(3H),2′-[2H]pyran]-3′,4′,5′-triol] the IC50 [1] was 2.2 nM and the inhibition in vivo at 0.3 mg/kg [2] was at least 25%.
Work on `COc1ccc(Cc2cc3c(cc2C)CO[C@]32O[C@H](CO)[C@@H](O)[C@H](O)[C@H]2O)cc1` [Example 23, (1S,3′R,4′S,5′S,6′R)-3′,4′,5′,6′-tetrahydro-6′-(hydroxymethyl)-6-[(4-methoxyphenyl)methyl]-5-methyl-spiro[isobenzofuran-1(3H),2′-[2H]pyran]-3′,4′,5′-triol] yielded an IC50 [1] of 1.5 nM and an inhibition in vivo at 0.3 mg/kg [2] of at least 25%.
Compound `OC[C@H]1O[C@]2(OCc3cc(Cl)c(Cc4ccc(C(F)(F)F)cc4)cc32)[C@H](O)[C@@H](O)[C@@H]1O` [Example 13, (1S,3′R,4′S,5′S,6′R)-5-chloro-6-[(4-trifluoromethylphenyl)methyl]-3′,4′,5′,6′-tetrahydro-6′-(hydroxymethyl)-spiro[isobenzofuran-1(3H),2′-[2H]pyran]-3′,4′,5′-triol] has an IC50 [1] of 1.7 nM and an inhibition in vivo at 0.3 mg/kg [2] of at least 25%.
For `CCCc1ccc(Cc2cc3c(cc2C)CO[C@]32O[C@H](CO)[C@@H](O)[C@H](O)[C@H]2O)cc1` [Example 25, (1S,3′R,4′S,5′S,6′R)-3′,4′,5′,6′-tetrahydro-6′-(hydroxymethyl)-5-methyl-6-[(4-propylphenyl)methyl]-spiro[isobenzofuran-1(3H),2′-[2H]pyran]-3′,4′,5′-triol], the IC50 [1] was 2.3 nM and the inhibition in vivo at 0.3 mg/kg [2] was at least 25%.
With `CC(C)c1ccc(Cc2cc3c(cc2F)CO[C@]32O[C@H](CO)[C@@H](O)[C@H](O)[C@H]2O)cc1` [Example 19, (1S,3′R,4′S,5′S,6′R)-5-fluoro-3′,4′,5′,6′-tetrahydro-6′-(hydroxymethyl)-6-[(4-isopropylphenyl)methyl]-spiro[isobenzofuran-1(3H),2′-[2H]pyran]-3′,4′,5′-triol] the IC50 [1] was 2 nM and the inhibition in vivo at 0.3 mg/kg [2] was at least 25%.
Compound `OC[C@H]1O[C@]2(OCc3cc(Cl)c(Cc4ccc(Cl)cc4)cc32)[C@H](O)[C@@H](O)[C@@H]1O` [Example 6, (1S,3′R,4′S,5′S,6′R)-5-chloro-6-[(4-chlorophenyl)methyl]-3′,4′,5′,6′-tetrahydro-6′-(hydroxymethyl)-spiro[isobenzofuran-1(3H),2′-[2H]pyran]-3′,4′,5′-triol] has an IC50 [1] of 1.3 nM and an inhibition in vivo at 0.3 mg/kg [2] of at least 25%.
